Test [1] addresses T1, human TNFR1 extracellular domain (ECD) protein (Homo sapiens, UniProt P19438).
T1 construct: HRV 3C protease cleavage site (C); 6His (C, cleaved yes); made in house; host or cells: Sf21 insect cells (baculovirus), secreted
T1 sequence (P19438 30-211): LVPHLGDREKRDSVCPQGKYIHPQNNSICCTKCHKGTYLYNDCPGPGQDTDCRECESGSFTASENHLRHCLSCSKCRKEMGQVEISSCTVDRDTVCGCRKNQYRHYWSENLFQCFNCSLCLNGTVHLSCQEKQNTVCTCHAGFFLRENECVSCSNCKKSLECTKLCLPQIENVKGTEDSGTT
Briefly: SPR binding affinity to captured human TNFR1 ECD. The procedure, abridged: (§1)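 Insect-cell human receptor ECDs, enzymatically biotinylated, immobilized via streptavidin capture chip. Peptide binding and dissociation measured in RU in pH 7.4 HEPES buffer containing 2% DMSO; chip regenerated per analyte. Rate constants give affinity.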
For orientation: In SPR one partner is held on a chip, and binding of the other changes the refractive index at the surface.

Another test addresses T2, human TNFR2 ECD protein (Homo sapiens, UniProt P20333).
T2 construct: HRV 3C protease cleavage site (C); 6His (C, cleaved yes); made in house; host or cells: Sf21 insect cells (baculovirus), secreted
T2 sequence (P20333 23-257): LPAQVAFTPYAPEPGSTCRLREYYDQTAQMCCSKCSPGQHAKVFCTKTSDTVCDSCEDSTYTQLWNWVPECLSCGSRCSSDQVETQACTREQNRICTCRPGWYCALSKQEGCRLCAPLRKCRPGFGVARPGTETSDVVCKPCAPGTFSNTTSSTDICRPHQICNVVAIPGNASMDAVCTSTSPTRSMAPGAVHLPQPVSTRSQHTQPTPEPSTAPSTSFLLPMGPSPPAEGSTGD
Briefly: SPR off-target binding (selectivity) to human TNFR2 ECD. The gist of the method: as §1

Test [2] has as its target T3, human soluble TNFR1 (sTNFR1) (Homo sapiens, UniProt P19438).
T3 construct: made in house; host or cells: Sf21 (baculovirus)
T3 sequence (P19438 with tags, fused parts or gaps): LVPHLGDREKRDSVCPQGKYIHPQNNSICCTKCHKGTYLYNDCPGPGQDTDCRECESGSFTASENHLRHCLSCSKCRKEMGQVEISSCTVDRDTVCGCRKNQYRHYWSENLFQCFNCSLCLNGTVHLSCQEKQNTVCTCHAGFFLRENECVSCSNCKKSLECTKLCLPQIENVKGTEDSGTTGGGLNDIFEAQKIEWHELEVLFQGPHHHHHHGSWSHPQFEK
Briefly: Human sTNFR1-peptide displacement assay (LanthaScreen Eu TR-FRET binding assay). The procedure, abridged: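 Readout is the 665/615 nm TR-FRET ratio (Eu anti-His donor, streptavidin-Alexa647 acceptor), normalized to DMSO and saturating displacer, fit by Morrison-based five-parameter logistic for Kd^app. His-tagged sTNFR1 (1-211) prebound to 100 nM biotinylated peptide SEQ ID NO.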

Numbered stars: 1 amine (or outer) side, 2 acyl side, 3 side chain; on linkers, the order of the positions; unused ones are H or OH. Bridge positions count the residues as written; N and C are the ends. Square brackets hold non-standard residues; d marks the D form. Peptide text beside a SMILES is read from it. Trp(βS-Me,7-OMe) = COc1cccc2c([C@H](C)[C@H](N)C(=O)O)c[nH]c12; Phe(4-CH2COOH) = N[C@@H](Cc1ccc(CC(=O)O)cc1)C(=O)O; Trp(7-Br) = N[C@@H](Cc1c[nH]c2c(Br)cccc12)C(=O)O; Trp(7-Cl) = N[C@@H](Cc1c[nH]c2c(Cl)cccc12)C(=O)O; Phe(3-CONH2) = NC(=O)c1cccc(C[C@H](N)C(=O)O)c1; Phe(4-CONH2) = NC(=O)c1ccc(C[C@H](N)C(=O)O)cc1; Phe(4-COOH) = N[C@@H](Cc1ccc(C(=O)O)cc1)C(=O)O; Trp(7-aza) = N[C@@H](Cc1c[nH]c2ncccc12)C(=O)O; Trp(1-Me) = Cn1cc(C[C@H](N)C(=O)O)c2ccccc21; X1 = O=C([C@@H]1CC[C@H](N[*:1])C1)[*:2]; d(cisHyp) = O=C(O)[C@H]1C[C@@H](O)CN1; Pip(4-aza) = O=C(O)[C@@H]1CNCCN1; 4Pal = N[C@@H](Cc1ccncc1)C(=O)O; NMeE = CN[C@@H](CCC(=O)O)C(=O)O; dHyp = O=C(O)[C@H]1C[C@H](O)CN1; Ahp(2) = CCCCC[C@H](N)C(=O)O; Pip = O=C(O)[C@@H]1CCCCN1; αMeS = C[C@](N)(CO)C(=O)O; Nle = CCCC[C@H](N)C(=O)O; Sar = CNCC(=O)O Bounds are passed on as bounds.

Broadly, the Kd is the free concentration of one partner at which half of the binding sites on the other are occupied at equilibrium, for simple one-to-one binding. A low value points to higher affinity. With `CCCC[C@@H]1NC(=O)[C@@H]2CC[C@@H](C2)NC(=O)[C@H]([C@@H](C)c2c[nH]c3c(OC)cccc23)NC(=O)CN(C)C(=O)[C@H](Cc2ccc(OC)cc2)NC(=O)[C@H](Cc2ccc(C(=O)O)cc2)NC(=O)[C@](C)(CO)NC(=O)[C@H](Cc2c[nH]c3c(Cl)cccc23)NC(=O)[C@H](Cc2ccc(C(N)=O)cc2)NC(=O)[C@H](CCC(N)=O)NC(=O)[C@H](CCC(=O)O)N(C)C(=O)[C@H](Cc2c[nH]c3ccccc23)NC(=O)[C@@H]2CNCCN2C(=O)[C@H](Cc2ccncc2)NC1=O` [SEQ ID NO. 240] (cyclo([4Pal][Pip(4-aza)]W[NMeE]Q[Phe(4-CONH2)][Trp(7-Cl)][αMeS][Phe(4-COOH)]Y(Me)[Sar][Trp(βS-Me,7-OMe)][X1][Nle])), the Kd in test [1] is 0.09 nM; on human TNFR2 ECD protein, more than 1000 nM; in test [2], 0.23 nM.

One may read the IC50 as the point on the concentration scale where inhibition reaches its midpoint. A higher IC50 goes with weaker potency. `CCCC[C@@H]1NC(=O)CSC[C@@H](C(N)=O)NC(=O)[C@H](Cc2cn(C)c3ccccc23)NC(=O)CN(C)C(=O)[C@H](Cc2ccc(O)cc2)NC(=O)[C@H](Cc2ccc(C(=O)O)cc2)NC(=O)[C@](C)(CO)NC(=O)[C@H](Cc2c[nH]c3c(Cl)cccc23)NC(=O)[C@H](Cc2ccncc2)NC(=O)[C@H](CC(N)=O)NC(=O)[C@H](CCC(=O)O)N(C)C(=O)[C@H](Cc2c[nH]c3ncccc23)NC(=O)[C@H](CO)NC(=O)[C@H](Cc2ccncc2)NC1=O` [SEQ ID NO. 223] ({CH2CO}-[Nle][4Pal]S[Trp(7-aza)][NMeE]N[4Pal][Trp(7-Cl)][αMeS][Phe(4-COOH)]Y[Sar][Trp(1-Me)]C-NH2; thioether N-14): the Kd in test [1] is 0.3 nM; at human TNFR2 ECD protein, more than 1000 nM; in test [2], 0.48 nM. Also, the IC50 in test [2] is 0.39 nM.

Consider `CCCCC[C@@H]1NC(=O)[C@@H]2CC[C@@H](C2)NC(=O)[C@H]([C@@H](C)c2c[nH]c3c(OC)cccc23)NC(=O)CN(C)C(=O)[C@H](Cc2cccc(C(N)=O)c2)NC(=O)[C@H](Cc2ccc(C(N)=O)cc2)NC(=O)[C@](C)(CO)NC(=O)[C@H](Cc2c[nH]c3c(Br)cccc23)NC(=O)[C@H](Cc2ccc(C(=O)O)cc2)NC(=O)[C@H](CC(N)=O)NC(=O)[C@H]2C[C@H](O)CN2C(=O)[C@H](Cc2c[nH]c3ccccc23)NC(=O)[C@@H]2CNCCN2C(=O)[C@H](Cc2ccncc2)NC1=O` [SEQ ID NO. 109] (cyclo([4Pal][Pip(4-aza)]W[dHyp]N[Phe(4-COOH)][Trp(7-Br)][αMeS][Phe(4-CONH2)][Phe(3-CONH2)][Sar][Trp(βS-Me,7-OMe)][X1][Ahp(2)])), for which the equilibrium dissociation constant (Kd) in test [1] was 0.05 nM; at human TNFR2 ECD protein, more than 1000 nM; in test [2] it was 0.11 nM.

Take `CCCC[C@@H]1NC(=O)CSC[C@@H](C(N)=O)NC(=O)[C@H]([C@@H](C)c2c[nH]c3c(OC)cccc23)NC(=O)CN(C)C(=O)[C@H](Cc2ccc(O)cc2)NC(=O)[C@H](Cc2ccc(C(=O)O)cc2)NC(=O)[C@](C)(CO)NC(=O)[C@H](Cc2c[nH]c3c(Cl)cccc23)NC(=O)[C@H](Cc2ccncc2)NC(=O)[C@H](CC(N)=O)NC(=O)[C@H]2C[C@@H](O)CN2C(=O)[C@H](Cc2c[nH]c3ncccc23)NC(=O)[C@@H]2CNCCN2C(=O)[C@H](Cc2ccncc2)NC1=O` [SEQ ID NO. 261] ({CH2CO}-[Nle][4Pal][Pip(4-aza)][Trp(7-aza)][d(cisHyp)]N[4Pal][Trp(7-Cl)][αMeS][Phe(4-COOH)]Y[Sar][Trp(βS-Me,7-OMe)]C-NH2; thioether N-14): the Kd in test [1] was 0.2 nM; at human TNFR2 ECD protein, more than 1000 nM; in test [2], 0.3 nM. The compound also yielded an IC50 in test [2] of 0.4 nM.

Regarding `CCCC[C@@H]1NC(=O)CSC[C@@H](C(N)=O)NC(=O)[C@H]([C@@H](C)c2c[nH]c3c(OC)cccc23)NC(=O)CN(C)C(=O)[C@H](Cc2ccc(O)cc2)NC(=O)[C@H](Cc2ccc(C(=O)O)cc2)NC(=O)[C@](C)(CO)NC(=O)[C@H](Cc2c[nH]c3c(Cl)cccc23)NC(=O)[C@H](Cc2ccc(CC(=O)O)cc2)NC(=O)[C@H](CC(N)=O)NC(=O)[C@H](CCC(=O)O)N(C)C(=O)[C@H](Cc2c[nH]c3ccccc23)NC(=O)[C@@H]2CCCCN2C(=O)[C@H](Cc2ccncc2)NC1=O` [SEQ ID NO. 212] ({CH2CO}-[Nle][4Pal][Pip]W[NMeE]N[Phe(4-CH2COOH)][Trp(7-Cl)][αMeS][Phe(4-COOH)]Y[Sar][Trp(βS-Me,7-OMe)]C-NH2; thioether N-14), the Kd is 0.5 nM in test [1], more than 1000 nM at human TNFR2 ECD protein and 0.73 nM in test [2]. The same compound displayed an IC50 in test [2] of 0.9 nM.

(Values after US20240287138A1, “CYCLIC PEPTIDES FOR INHIBITING TNF RECEPTOR 1 ACTIVITY” (Merck Sharp & Dohme LLC, priority 2023, published 2024).)
